One data set concerns the target T1, human FLT3-ITD (Homo sapiens, UniProt P36888).
T1 sequence (P36888 1-993): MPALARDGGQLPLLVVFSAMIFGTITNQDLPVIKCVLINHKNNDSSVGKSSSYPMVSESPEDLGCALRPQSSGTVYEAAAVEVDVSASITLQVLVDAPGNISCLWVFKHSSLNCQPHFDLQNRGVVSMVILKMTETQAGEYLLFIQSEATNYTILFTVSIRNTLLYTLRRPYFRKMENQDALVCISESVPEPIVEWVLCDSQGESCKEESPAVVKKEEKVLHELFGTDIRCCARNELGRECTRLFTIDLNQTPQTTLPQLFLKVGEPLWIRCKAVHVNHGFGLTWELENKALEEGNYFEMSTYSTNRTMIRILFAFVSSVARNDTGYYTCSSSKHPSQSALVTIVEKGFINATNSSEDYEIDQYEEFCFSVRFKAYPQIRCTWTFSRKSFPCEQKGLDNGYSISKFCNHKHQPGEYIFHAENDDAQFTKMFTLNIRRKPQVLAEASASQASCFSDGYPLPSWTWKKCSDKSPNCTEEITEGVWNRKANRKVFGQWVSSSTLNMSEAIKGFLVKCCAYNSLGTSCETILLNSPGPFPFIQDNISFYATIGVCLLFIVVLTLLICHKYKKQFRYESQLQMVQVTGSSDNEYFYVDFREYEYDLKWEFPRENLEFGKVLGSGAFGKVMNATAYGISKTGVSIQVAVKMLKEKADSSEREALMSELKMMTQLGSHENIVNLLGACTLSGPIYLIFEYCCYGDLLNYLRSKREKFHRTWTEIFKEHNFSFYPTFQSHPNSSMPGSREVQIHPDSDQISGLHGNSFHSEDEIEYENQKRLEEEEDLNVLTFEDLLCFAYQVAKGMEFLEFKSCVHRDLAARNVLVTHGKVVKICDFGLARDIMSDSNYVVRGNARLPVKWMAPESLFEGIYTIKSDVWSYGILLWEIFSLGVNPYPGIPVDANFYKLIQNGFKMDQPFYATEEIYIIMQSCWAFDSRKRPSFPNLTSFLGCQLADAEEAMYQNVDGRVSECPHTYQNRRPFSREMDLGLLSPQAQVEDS
Description: Enzymatic kinase assay FLT3 (ITD), 10-dose IC50 mode (Reaction Biology). The format is biochemical.

Data set [1] has as its system MV4-11 cells (FLT3-ITD positive). Description: Cell Titer-Glo proliferation assay with MV4-11 cells. The format is cell-based. Particulars: Homo sapiens, MV4-11, 72 h. The protocol: MV4-11 cells are human acute myeloid leukemia cell lines that carry a FLT3-ITD mutation (American Type Culture Collection, ATCC, Manassas, VA, United States). Cells were cultured in IMDM medium plus 100 μg/mL penicillin, 100 μg/mL streptomycin and 10% FBS. All cells were kept at 37° C., 5% CO2.
Cell proliferation was assessed with Cell Titer-Glo® Viability Assay (Promega; Madison, WI, United States) according to the manufacturer's instructions.

Data set [2] has as its target T2, recombinant human FLT3 (D835Y) (Homo sapiens, UniProt P36888, D835Y).
T2 construct: purchased Reaction Biology
T2 sequence (P36888 27-993 D835Y): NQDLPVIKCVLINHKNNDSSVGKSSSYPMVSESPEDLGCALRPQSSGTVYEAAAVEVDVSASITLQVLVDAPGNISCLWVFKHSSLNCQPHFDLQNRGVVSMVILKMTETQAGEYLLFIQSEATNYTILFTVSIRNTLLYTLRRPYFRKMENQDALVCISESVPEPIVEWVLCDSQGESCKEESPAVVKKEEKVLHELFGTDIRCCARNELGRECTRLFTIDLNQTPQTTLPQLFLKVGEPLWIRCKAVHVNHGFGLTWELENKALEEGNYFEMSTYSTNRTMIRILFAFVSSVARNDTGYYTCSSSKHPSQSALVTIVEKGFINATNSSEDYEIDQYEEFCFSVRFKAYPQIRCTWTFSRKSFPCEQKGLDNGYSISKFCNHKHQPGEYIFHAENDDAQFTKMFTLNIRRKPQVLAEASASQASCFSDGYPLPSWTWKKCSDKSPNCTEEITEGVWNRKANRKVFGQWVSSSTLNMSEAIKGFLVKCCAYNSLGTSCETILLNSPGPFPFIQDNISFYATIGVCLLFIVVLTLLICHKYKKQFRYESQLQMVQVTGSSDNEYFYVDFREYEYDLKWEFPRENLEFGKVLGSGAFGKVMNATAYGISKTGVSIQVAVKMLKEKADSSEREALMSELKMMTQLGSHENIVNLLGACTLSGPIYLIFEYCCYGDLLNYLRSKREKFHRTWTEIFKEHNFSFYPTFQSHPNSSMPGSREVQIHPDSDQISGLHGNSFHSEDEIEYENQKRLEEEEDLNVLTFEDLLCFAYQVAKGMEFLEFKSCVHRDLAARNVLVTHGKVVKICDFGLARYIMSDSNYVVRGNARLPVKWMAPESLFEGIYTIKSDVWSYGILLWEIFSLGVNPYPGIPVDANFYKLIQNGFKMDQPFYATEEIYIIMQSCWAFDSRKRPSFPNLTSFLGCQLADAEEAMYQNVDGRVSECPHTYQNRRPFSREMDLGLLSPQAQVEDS
The data set is described as follows: Enzymatic kinase assay FLT3 (D835Y), 10-dose IC50 mode (Reaction Biology). Conditions: 10 μM ATP. The format is biochemical.

A short description of data set [3]: Solubility test by UV-Vis spectroscopy of saturated solutions. The class given is physicochemical. Conditions: solvent DMSO.
Assay in data set [4]: as above
The format is physicochemical. Conditions: saturated solution; for solubility: thermodynamic from solid. The protocol:
All UV-Vis measurements were carried out with an Agilent Cary 60 UV-Vis 2.00 between 800-200 nm. The absorbance was measured with a scan rate of 300.0 nm/min, a data interval of 0.50 nm and an UV-Vis Average Time of 0.10 s. For all measurements a cuvette with 10 mm light path was used. A calibration curve was plotted from several different concentrations and the solubility of the respective compound was determined by measuring the absorbance of a diluted saturated solution. As a blank curve a mixture of ultrapure water and ethanol in a ratio of 1:1 or 5:95 was recorded. For the calibration curve a 100 μM or a 10 μM solution of the compound in an ultrapure water:ethanol (1:1) or (5:95)-mixture was prepared and diluted to obtain at least 6 concentrations. […] The supernatant was taken using a syringe and filtered through a syringe filter (RC Membrane). The saturated solution was diluted with ultrapure water and ethanol to obtain an appropriate concentration in a water:ethanol (1:1) or (5:95)-mixture. The long wave absorbance maximum was used for determination of the solubility (mean values, determination in triplicate). […] By plotting the concentration of the solution against the absorbance values at the previously determined wavelength maximum a calibration curve was obtained (FIG. 1B).

Setting [5] is: 10 μM ATP; read-out: IC50 FLT3 (ITD).
[6] abbreviates: ethanol, organic solvent or mixture, ethanol, read-out: Solubility Ethanol.
The mark [7] stands for this setting: ultrapure water, water, ultrapure water, read-out: Solubility Water.

Nine compounds from patent publication US20260184702A1, “SYNTHESIS, PHARMACOLOGY AND USE OF NEW WATER-SOLUBLE AND SELECTIVE FMS-LIKE TYROSINE KINASE3 (FLT3) INHIBITORS” (Universität Regensburg, priority 2022, published 2026) can be followed below.

In brackets after ≈: the same amount, converted by molar mass. Where two headings read alike, the source gives them in different places.

Regarding `CC(C)(C)c1cc(NC(=O)Nc2ccc3oc(C(=O)c4cc5c(CN6CCOCC6)c(OC(=O)N6CCC(N7CCCCC7)CC6)ccc5[nH]4)cc3c2)no1` [Compound 38b, 2-(5-(3-(5-(tert-Butyl)isoxazol-3-yl)ureido)benzofuran-2-carbonyl)-4-(morpholinomethyl)-1H-indol-5-yl[1,4′-bipiperidine]-1′-carboxylate bis(2,2,2-trifluoroacetate)], the half-maximal inhibitory concentration (IC50) (commonly the point on the concentration scale where inhibition reaches its midpoint) was 1.29 nM at human FLT3-ITD (read-out: IC50 FLT3 (ITD); 10 μM ATP; bis(2,2,2-trifluoroacetate)), 0.38 nM in data set [1] (read-out: IC50 MV4-11 cells [nM]) and 6.63 nM in data set [2] (IC50 FLT3 (D835Y) [nM]).
Regarding `C=CC(=O)N1CCN(Cc2c(O)ccc3[nH]c(C(=O)c4cc5cc(NC(=O)Nc6cc(C(C)(C)C)on6)ccc5o4)cc23)CC1` [Compound 56b, 1-(2-(4-((4-Acryloylpiperazin-1-yl)methyl)-5-hydroxy-1H-indole-2-carbonyl)benzofuran-5-yl)-3-(5-(tert-butyl)isoxazole-3-yl)urea 2,2,2-trifluoroacetate], the “Solubility DMSO” value in data set [3] was “Soluble”. Also, the values for the IC50 (on human FLT3-ITD (setting [5]); in data set [1] (read-out: IC50 MV4-11 cells); in data set [2] (read-out: IC50 FLT3 (D835Y))) were 1.47 nM, 0.17 nM and 10.8 nM, respectively. Moreover, the solubility (commonly the concentration that dissolves in the medium under given conditions) came out at 2540 µg/mL (≈ 4160 µM) in data set [4] (setting [6]) and 220 µg/mL (≈ 360 µM) in data set [4] (setting [7]).
Take `CN1CCN(Cc2c(O)ccc3[nH]c(C(=O)c4cc5cc(NC(=O)Nc6cc(C(C)(C)C)on6)ccc5o4)cc23)CC1` [Compound 33a, 1-(5-(tert-Butyl)isoxazol-3-yl)-3-(2-(5-hydroxy-4-((4-methylpiperazin-1-yl)methyl)-1H-indole-2-carbonyl)benzofuran-5-yl)urea]: the “Solubility DMSO” value in data set [3] is listed as “Soluble”. The IC50 on human FLT3-ITD (setting [5]) was 0.81 nM; in data set [2] (read-out: IC50 FLT3 (D835Y)), 3.83 nM. The solubility was 4670 µg/mL (≈ 8180 µM) in data set [4] (setting [6]) and < 100 µg/mL in data set [4] (setting [7]).
For the compound `C/C=C/C(=O)N1CCN(Cc2c(O)ccc3[nH]c(C(=O)c4cc5cc(NC(=O)Nc6cc(C(C)(C)C)on6)ccc5o4)cc23)CC1` [Compound 57a, 1-(2-(4-((4-(But-2-enoyl)piperazin-1-yl)methyl)-5-hydroxy-1H-indole-2-carbonyl)benzofuran-5-yl)-3-(5-(tert-butyl)isoxazole-3-yl)urea], the half-inhibitory concentration (IC50) turned out to be 4.36 nM on human FLT3-ITD (setting [5]) and 0.24 nM in data set [1] (read-out: IC50 MV4-11 cells).
In the case of `CN1CCN(Cc2c(OC(=O)N3CCC(N4CCCCC4)CC3)ccc3[nH]c(C(=O)c4cc5cc(NC(=O)Nc6cc(C(C)(C)C)on6)ccc5o4)cc23)CC1` [Compound 41a, 2-(5-(3-(5-(tert-Butyl)isoxazol-3-yl)ureido)benzofuran-2-carbonyl)-4-((4-methylpiperazin-1-yl)methyl)-1H-indol-5-yl [1,4′-bipiperidine]-1′-carboxylate], the 50% inhibitory concentration (IC50) at human FLT3-ITD (read-out: IC50 FLT3 (ITD); 10 μM ATP) stood at 0.7 nM; in data set [2] (IC50 FLT3 (D835Y) [nM]) it was 2.46 nM.
Turning to `CCN1CCN(Cc2c(O)ccc3[nH]c(C(=O)c4cc5cc(NC(=O)Nc6cc(C(C)(C)C)on6)ccc5o4)cc23)CC1` [Compound 69a, 1-(5-(tert-Butyl)isoxazol-3-yl)-3-(2-(4-((4-ethylpiperazin-1-yl)methyl)-5-hydroxy-1H-indole-2-carbonyl)benzofuran-5-yl)urea], in data set [3], the “Solubility DMSO” value is recorded as “Soluble”. The IC50 at human FLT3-ITD (setting [5]) was determined as 1.28 nM; in data set [1] (read-out: IC50 MV4-11 cells), 0.13 nM; in data set [2] (read-out: IC50 FLT3 (D835Y)), 4.23 nM. Also, the “Solubility Ethanol” value in data set [4] (ethanol) was 970 µg/mL (≈ 1660 µM). The solubility in data set [4] (setting [7]) was < 100 µg/mL.
Regarding `CC(C)(C)c1cc(NC(=O)Nc2ccc3oc(C(=O)c4cc5c(CN6CCCC6)c(O)ccc5[nH]4)cc3c2)no1` [Compound 32a, 1-(5-(tert-Butyl)isoxazol-3-yl)-3-(2-(5-hydroxy-4-(pyrrolidin-1-ylmethyl)-1H-indole-2-carbonyl)benzofuran-5-yl)urea], the “Solubility DMSO” value in data set [3] is given as “Soluble”. In addition, the “Solubility Ethanol” value in data set [4] (ethanol) stood at 910 µg/mL (≈ 1680 µM). Besides, in data set [4] (setting [7]), the solubility was < 100 µg/mL.
As to `CC(C)(C)c1cc(NC(=O)Nc2ccc3oc(C(=O)c4cc5c(CN6CCNCC6)c(O)ccc5[nH]4)cc3c2)no1` [Compound 55b, 1-(5-(tert-Butyl)isoxazol-3-yl)-3-(2-(5-hydroxy-4-(piperazin-1-ylmethyl)-1H-indole-2-carbonyl)benzofuran-5-yl)urea bis(2,2,2-trifluoroacetate)], the “Solubility DMSO” value in data set [3] is reported as “Soluble”. Besides, the IC50 on human FLT3-ITD (setting [5]) stood at 3.36 nM; in data set [1] (read-out: IC50 MV4-11 cells), 0.42 nM; in data set [2] (read-out: IC50 FLT3 (D835Y)) it was 9.55 nM. The solubility in data set [4] (setting [6]) was 1140 µg/mL (≈ 2050 µM); in data set [4] (setting [7]), < 100 µg/mL.
As for `CC(C)N1CCN(Cc2c(O)ccc3[nH]c(C(=O)c4cc5cc(NC(=O)Nc6cc(C(C)(C)C)on6)ccc5o4)cc23)CC1` [Compound 70a, 1-(5-(tert-Butyl)isoxazol-3-yl)-3-(2-(5-hydroxy-4-((4-isopropylpiperazin-1-yl)methyl)-1H-indole-2-carbonyl)benzofuran-5-yl)urea], the “Solubility DMSO” value in data set [3] is reported as “Soluble”. Moreover, the 50% inhibitory concentration (IC50) on human FLT3-ITD (setting [5]) is 1.98 nM; in data set [1] (read-out: IC50 MV4-11 cells) it was 0.31 nM; in data set [2] (read-out: IC50 FLT3 (D835Y)) it was 2.6 nM. Moreover, the solubility in data set [4] (setting [6]) amounted to 920 µg/mL (≈ 1540 µM). In addition, the “Solubility Water” value in data set [4] (ultrapure water) is <100 µg/mL.
